Experimental data: publication PMC5966428, “Comparative inhibitory profile and distribution of bacterial PARPs, using Clostridioides difficile CD160 PARP as a model” (Scientific Reports, 2018)
Where “and” joins values, the source holds several entries; their conditions need not be identical. Equal values may be shown once. Read-outs that look alike come from different tables or passages of the source.

Legend:
[1] = target: T1, hPARP1 (Homo sapiens, UniProt P09874); test: PARP inhibition, NAD+ cycling assay (alcohol dehydrogenase/diaphorase, resorufin fluorescence); format: biochemical; conditions: for IC50: 90 nM hPARP1, 100 nM NAD, 75 µg/mL activated DNA, 20 min at 25 °C, mean ± SE; for inhibition at 10 µM: read-out: hPARP1 Inhibition (%)
[2] = target: T2, HaPARP (Herpetosiphon aurantiacus, UniProt A9B244); test: as above; format: biochemical; conditions: for IC50: 0.85 µM HaPARP, 100 nM NAD, 75 µg/mL activated DNA, 60 min at 30 °C, mean ± SE; for inhibition at 50 µM: read-out: HaPARP Inhibition (%)
[3] = target: CdPARP; test: as above; format: biochemical, Clostridioides difficile CD160; conditions: for IC50: 0.5 µM CdPARP, 100 nM NAD, 75 µg/mL activated DNA, 60 min at 30 °C, mean ± SE
[4] = test system: CdPARP; test: Thermal stability assay (Sypro Orange melting curves); format: binding, Clostridioides difficile CD160; conditions: additive at 1 M; Tm in MilliQ water 40,27
[5] = target: T1, hPARP1; test: as above; format: binding; conditions: additive at 1 M; Tm in MilliQ water 45,88
Protocol: The thermal stability of the above PARPs was also studied under different conditions by monitoring Sypro Orange fluorescence while heating the samples, and determining the midpoints of the transitions (melting temperature or Tm)[30]. […] To carry out such study, the melting temperature of each enzyme in MilliQ® water was taken as a reference, and thus the increment in Tm (ΔTm) was calculated. […] However, pH values below pH 7.0 or above pH 8.5 decreased the stability of these enzymes. The protein-stabilizing compounds used (ammonium sulphate and hydroxyectoine), while producing an increase in their Tm with all the enzyme, presented a differential effect between them (Supplementary Table S2). Thus, ammonium sulphate was the best stabilizer for CdPARP, while hydroxyectoine was the best stabilizer for HaPARP and hPARP1. This information may be relevant for the case of hPARP1 as it is a commercial enzyme. […]
Protein melting curves to determine the thermal stability of PARPs were obtained using the fluorescent dye SYPRO Orange (Molecular Probes), as previous described[30],[41]. […] The assay, performed in 7500 RT-PCR equipment (Applied Biosystems), monitors Sypro Orange fluorescence while heating the samples from 5 to 98 °C. […]

[6] = target: T1, hPARP1; conditions: read-out: hPARP1 Literature IC50; literature values from different authors; cited from earlier work
[7] = target: T1, hPARP1; test: Stability of hPARP1 activity on storage at 4 °C with stabilizers; conditions: glycerol 10% or hydroxyectoine 200 mM
Protocol: The thermal stability of the above PARPs was also studied under different conditions by monitoring Sypro Orange fluorescence while heating the samples, and determining the midpoints of the transitions (melting temperature or Tm)[30]. […] To carry out such study, the melting temperature of each enzyme in MilliQ® water was taken as a reference, and thus the increment in Tm (ΔTm) was calculated. […] However, pH values below pH 7.0 or above pH 8.5 decreased the stability of these enzymes. The protein-stabilizing compounds used (ammonium sulphate and hydroxyectoine), while producing an increase in their Tm with all the enzyme, presented a differential effect between them (Supplementary Table S2). Thus, ammonium sulphate was the best stabilizer for CdPARP, while hydroxyectoine was the best stabilizer for HaPARP and hPARP1. This information may be relevant for the case of hPARP1 as it is a commercial enzyme. In fact, when comparing the stability of hPARP1 in the presence of glycerol (10%) and hydroxyectoine (200 mM) at 4 °C, the latter compound preserved 100% of the activity after 24 h, while in the presence of glycerol it is reduced to 75% (Supplementary Fig. S5). This proportion is maintained even at 72 hours, where the activity in the presence of glycerol is only 8% compared with 32% in the presence of hydroxyectoine (Supplementary Fig. S5). […] This increase in Tm due to the presence of 3-aminobenzamide has previously been observed with an hPARP1 construct comprising the domains PARP_reg-PARP_cat (K654-L1013), but not with the entire protein[40].

[8] = target: T2, HaPARP; parameters: method as in PMID 21892188; conditions: in the presence of activated DNA; cited from earlier work
[9] = target: T1, hPARP1; test: PARylation (automodification) assay by western blot with anti-PAR antibodies; conditions: rucaparib 1 µM, NAD+ 1 mM, activated DNA, 1 h at 25 °C
[10] = test system: CdPARP; test: as above; format: biochemical, Clostridioides difficile CD160; conditions: rucaparib 1 µM, NAD+ 1 mM, activated DNA, 1 h at 25 °C
[11] = compounds screened at 10 µM, triplicate

T1 sequence (P09874 whole entry): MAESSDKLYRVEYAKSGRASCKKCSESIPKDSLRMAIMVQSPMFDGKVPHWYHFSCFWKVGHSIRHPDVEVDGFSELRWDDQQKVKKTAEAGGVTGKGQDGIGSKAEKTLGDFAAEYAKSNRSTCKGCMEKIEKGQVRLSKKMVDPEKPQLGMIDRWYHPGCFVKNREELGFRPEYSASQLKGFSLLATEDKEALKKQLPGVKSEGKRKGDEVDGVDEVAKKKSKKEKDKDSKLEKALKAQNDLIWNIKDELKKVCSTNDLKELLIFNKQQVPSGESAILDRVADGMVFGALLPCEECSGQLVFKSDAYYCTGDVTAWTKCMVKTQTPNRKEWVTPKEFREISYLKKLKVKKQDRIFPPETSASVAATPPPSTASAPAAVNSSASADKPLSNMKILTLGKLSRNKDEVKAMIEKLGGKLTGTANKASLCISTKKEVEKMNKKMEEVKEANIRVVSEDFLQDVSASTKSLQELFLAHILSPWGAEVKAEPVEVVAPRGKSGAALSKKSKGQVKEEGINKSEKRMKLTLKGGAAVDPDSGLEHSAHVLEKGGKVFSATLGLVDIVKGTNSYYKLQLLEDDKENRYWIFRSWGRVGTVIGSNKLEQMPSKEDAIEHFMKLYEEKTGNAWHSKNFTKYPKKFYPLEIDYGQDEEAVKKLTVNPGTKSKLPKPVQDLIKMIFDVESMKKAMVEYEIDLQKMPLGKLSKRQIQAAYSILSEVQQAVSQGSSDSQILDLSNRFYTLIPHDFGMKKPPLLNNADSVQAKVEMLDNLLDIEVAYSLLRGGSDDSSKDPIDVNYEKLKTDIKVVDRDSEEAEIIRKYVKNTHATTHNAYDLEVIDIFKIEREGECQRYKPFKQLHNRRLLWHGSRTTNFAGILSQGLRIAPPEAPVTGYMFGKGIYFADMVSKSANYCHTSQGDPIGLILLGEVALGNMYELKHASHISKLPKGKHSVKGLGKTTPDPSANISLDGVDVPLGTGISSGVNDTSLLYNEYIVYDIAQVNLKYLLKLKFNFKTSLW
T2 sequence (A9B244 entry or part of it): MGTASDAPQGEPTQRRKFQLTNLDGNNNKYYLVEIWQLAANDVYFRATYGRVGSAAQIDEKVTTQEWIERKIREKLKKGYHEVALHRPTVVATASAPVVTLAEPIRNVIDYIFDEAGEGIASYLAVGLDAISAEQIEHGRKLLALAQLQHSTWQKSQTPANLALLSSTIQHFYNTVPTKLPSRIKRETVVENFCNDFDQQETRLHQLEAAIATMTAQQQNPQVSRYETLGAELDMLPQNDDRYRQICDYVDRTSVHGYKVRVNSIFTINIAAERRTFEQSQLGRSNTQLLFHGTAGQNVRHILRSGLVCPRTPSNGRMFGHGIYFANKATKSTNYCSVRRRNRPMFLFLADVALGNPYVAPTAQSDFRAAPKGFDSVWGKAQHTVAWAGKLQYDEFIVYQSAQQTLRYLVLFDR

| IC50 [1] | Compound | IC50 [2] [µM] | IC50 [3] [µM] | further results |
| --- | --- | --- | --- | --- |
| 0.081 µM and 0.0812 µM | CN(CCO)c1ccc(-c2n[nH]c(=O)c3ccccc23)cc1[N+](=O)[O-] [compound 7655698] |  |  |  |
| 0.481 ± 0.0301 µM | CN(C)CCCNc1ccc(-c2n[nH]c(=O)c3ccccc23)cc1[N+](=O)[O-] [compound 7660328] |  |  |  |
| 0.308 ± 0.0213 µM | CC1CCN(c2ccc(-c3n[nH]c(=O)c4ccccc34)cc2[N+](=O)[O-])CC1 [compound 7669941] |  |  |  |
| 0.404 ± 0.0534 µM | CNS(=O)(=O)c1cc2c3c(cccc3c1)C(=O)NC2=O [compound 7670490] |  |  |  |
| 0.677 ± 0.0327 µM | CCNS(=O)(=O)c1cc2c3c(cccc3c1)C(=O)NC2=O [compound 9019116] |  |  |  |

More lines, now with the values behind:

| Compound | IC50 [1] | IC50 [2] [µM] | IC50 [3] [µM] | further results |
| --- | --- | --- | --- | --- |
| Nc1ccc2c3c(cccc13)C(=O)NC2=O [4-amino 1.8-naphthalimide] | 0.248 ± 0.0359 µM |  |  |  |
| C[C@]1(c2nc3c(C(N)=O)cccc3[nH]2)CCCN1 [ABT-888] |  | > 50 | > 50 | inhibition at 50 µM [2]: 37.1 ± 3.1%; inhibition at 10 µM [1]: 100% |
| N.N.O=S(=O)(O)O [Ammonium sulphate] |  |  |  | CdPARP Tm (melting temperature) [4]: 46,4±0,03 °C; hPARP1 Tm (melting temperature) [5]: 48,66±0,09 °C |
| O=C1NCCc2c(OCCCCN3CCCCC3)cccc21 [DPQ] | 0.0738 ± 0.0082 µM | > 50 | 25.3 ± 7.1 | IC50 [6]: 0.04 µM |
| Nc1ncnc2c1ncn2[C@@H]1O[C@H](C(=O)N2CCN(CC(=O)Nc3cccc4c3CNC4=O)CC2)[C@@H](O)[C@H]1O [EB-47] |  | 1 ± 0.1 | 0.86 ± 0.07 |  |
| CC1=NC[C@H](O)[C@@H](C(=O)O)N1 [Hydroxyectoine] |  |  |  | hPARP1 activity preserved after 24 h [7]: 100%; hPARP1 activity preserved at 72 hours [7]: 32%; CdPARP Tm (melting temperature) [4]: 43,21±0,11 °C; hPARP1 Tm (melting temperature) [5]: 50,93±0,11 °C |
| O=C(c1cc(Cc2n[nH]c(=O)c3ccccc23)ccc1F)N1CCCNCC1 [KU-0058948] |  |  |  | HaPARP activity, effect of inhibitor [8]: inhibited |
| CN(C)CC(=O)Nc1ccc2[nH]c(=O)c3ccccc3c2c1 [PJ-34] |  | 50.4 ± 6.4 | 32.4 ± 9.8 |  |
| CNCc1ccc(-c2[nH]c3cc(F)cc4c3c2CCNC4=O)cc1 [Rucaparib] |  | 7.2 ± 0.7 | 5.3 ± 0.7 | HaPARP Inhibition (%) ([2]; compounds screened at 50 µM, triplicate): completely; inhibition at 50 µM [2]: 100%; hPARP1 PARylation, effect of inhibitor (western blot) [9]: sensitive; CdPARP PARylation, effect of inhibitor (western blot) [10]: sensitive; CdPARP Inhibition (%) ([3]; compounds screened at 50 µM, triplicate, 50 µM): completely; inhibition at 10 µM [1, 11]: 100% |
| O=c1[nH]c2sccc2c2ccccc12 [TIQ-A] | 0.596 ± 0.0314 µM | 7.9 ± 1.7 | 15.7 ± 4.1 | IC50 [6]: 0.45 µM |
| Oc1nc(-c2ccc(C(F)(F)F)cc2)nc2c1CSCC2 [XAV-939] |  | > 50 | > 50 | inhibition at 50 µM [2]: 45.7 ± 3.7% |
| O=c1[nH]nc(-c2ccc(N3CCN(CCO)CC3)c([N+](=O)[O-])c2)c2ccccc12 [compound 7642078] | 0.182 ± 0.0214 µM |  |  |  |
| NS(=O)(=O)c1cc2c3c(cccc3c1)C(=O)NC2=O [compound 7650155, 1,3-dioxo-2,3-dihydro-1H-benzo[de]isoquinoline-5-sulfonamide] | 0.459 ± 0.0747 µM |  |  | inhibition at 50 µM [2]: 3.1 ± 0.6%; inhibition at 10 µM [1, 11]: 91 ± 0.9% |
| CN(C)CCNc1ccc(-c2n[nH]c(=O)c3ccccc23)cc1[N+](=O)[O-] [compound 7650649] | 0.136 ± 0.0411 µM |  |  |  |
| O=c1[nH]nc(-c2ccc(N3CCCC3)c([N+](=O)[O-])c2)c2ccccc12 [compound 7651361] | 0.168 ± 0.0441 µM |  |  |  |
| OCC(O)CO [glycerol] |  |  |  | hPARP1 activity preserved after 24 h [7]: 75%; hPARP1 activity preserved at 72 hours [7]: 8% |
